Experimental data reported in ChEMBL document CHEMBL4316584, “All that glitters is not gold: Panning cytotoxic natural products and derivatives with a fused tricyclic backbone by the estimation of their leadlikeness for cancer treatment” (Eur J Med Chem, 2019).

Tests used:
[1] = tested on: HeLa; assay: Cytotoxicity against human HeLa cells after 48 hrs by MTT assay; assay type: functional, cell-based
[2] = tested on: HCT-116; assay: Cytotoxicity against human HCT116 cells after 48 hrs by MTT assay; assay type: functional, cell-based; conditions: HCT-116, 48 h

Row | Structure (SMILES) | IC50 [1] | IC50 [2]
1 | CC(C)C1=C(O)C(=O)C2=C(C=C[C@H]3C(C)(C)CCC[C@]23C)C1=O | 6.56 µM | 
2 | COc1cc2oc3cc(O)c(OC)c(CC=C(C)C)c3c(=O)c2c(O)c1CC=C(C)C | 12.8 µM | 
3 | CC(C)c1cc2c(cc1O)[C@@]1(C)CCCC(C)(C)[C@@H]1[C@@H](O)C2=O | 7.7 µM | 
4 | Nc1ccc(C(=O)/C=C/c2cc3c([nH]c4ccccc43)c(-c3ccc(F)cc3)n2)cc1 | 18.5 µM | 
5 | COc1cc(-c2nc(/C=C/C(=O)c3ccc(N)cc3)cc3c2[nH]c2ccccc23)ccc1F | 15.2 µM | 
6 | COc1cc(-c2nc(/C=C/C(=O)c3ccc(F)cc3)cc3c2[nH]c2ccccc23)cc(OC)c1OC | 13.4 µM | 
7 | COc1ccc(-c2nc(/C=C/C(=O)c3ccc(N)cc3)cc3c2[nH]c2ccccc23)cc1OC | 13.5 µM | 
8 | COc1cc(-c2nc(/C=C/C(=O)c3ccc(O)cc3)cc3c2[nH]c2ccccc23)cc(OC)c1OC | 12.5 µM | 
9 | NCCCCNCCNCc1c2ccccc2c(CNCCNCCCCN)c2ccccc12 | 20 µM | 
10 | Cc1cc(C)cc(NC(=O)[C@H](C)NC(=S)NC(=O)[C@]2(C)CCC[C@]3(C)c4ccc(C(C)C)cc4CC[C@@H]23)c1 | 18.6 µM | 
11 | CC(C)c1cc(C(=O)O)c2c(c1O)O[C@H]1C(C)(C)CCC[C@]21C | 17.8 µM | 
12 | COc1cc(-c2nc(C3CC(c4cccs4)=NN3C(C)=O)cc3c2[nH]c2ccccc23)cc(OC)c1OC (configuration not stated) | 4.51 µM | 
13 | CC(=O)N1N=C(c2cccs2)CC1c1cc2c([nH]c3ccccc32)c(-c2ccc(F)c(F)c2)n1 (configuration not stated) | 8.7 µM | 
14 | C[C@]1(O)Cc2c(O)c3c(c(O)c2[C@H](O)[C@H]1O)C(=O)C(SCCCO)=C(SCCCO)C3=O |  | 3.08 µM
15 | COc1cc(NC(=O)[C@H](Cc2ccccc2)NC(=S)NC(=O)[C@]2(C)CCC[C@]3(C)c4ccc(C(C)C)cc4CC[C@@H]23)cc(OC)c1OC | 17.5 µM | 
16 | CC1CCN(C2=CC(=O)c3c(O)c4c(c(O)c3C2=O)C[C@](C)(O)[C@H](O)[C@H]4O)CC1 |  | 3.25 µM
17 | COc1c(O)cc2oc3cc(O)c(C/C=C(/C)CO)c(O)c3c(=O)c2c1CCC(C)(O)CCC=C(C)C (configuration not stated) | 17.2 µM | 
18 | O=C(/C=C/c1cc2c([nH]c3ccccc32)c(-c2ccc(C(F)(F)F)cc2)n1)c1cccs1 | 9.54 µM | 
19 | Cc1cc(C)cc(NC(=O)[C@H](Cc2ccccc2)NC(=S)NC(=O)[C@]2(C)CCC[C@]3(C)c4ccc(C(C)C)cc4CC[C@@H]23)c1 | 15.8 µM | 

Row | Structure (SMILES) | IC50 [1] | IC50 [2]
20 | Nc1ncnc2c1ncn2Cc1cc(O)c2c(c1)C(=O)c1cccc(O)c1C2=O |  | 7.8 µM
21 | COc1cc(-c2nc(Cn3cc(CN4C(=O)c5ccc(C)cc5C4=O)nn3)cc3c2[nH]c2ccccc23)cc(OC)c1OC | 15.6 µM | 
22 | COc1ccc(NC(=O)[C@H](Cc2ccccc2)NC(=S)NC(=O)[C@]2(C)CCC[C@]3(C)c4ccc(C(C)C)cc4CC[C@@H]23)cc1 | 15.6 µM | 
23 | COc1cc(NC(=O)[C@H](C)NC(=S)NC(=O)[C@]2(C)CCC[C@]3(C)c4ccc(C(C)C)cc4CC[C@@H]23)cc(OC)c1OC | 18.1 µM | 
24 | CC(C)c1ccc2c(c1)CC[C@H]1[C@](C)(C(=O)NC(=S)N[C@@H](Cc3ccccc3)C(=O)Nc3ccccc3Cl)CCC[C@]21C | 17 µM | 
25 | CC(=O)N1N=C(c2cccs2)CC1c1cc2c([nH]c3ccccc32)c(-c2ccc(C(F)(F)F)cc2)n1 (configuration not stated) | 19 µM | 
26 | CCOc1ccc(/C=C2\CCc3c([nH]c4ccc(C)cc34)C2=O)cc1OCC | 0.8 µM | 
27 | CC(=O)N1N=C(c2ccco2)CC1c1cc2c([nH]c3ccccc32)c(-c2ccc(F)c(F)c2)n1 (configuration not stated) | 3.38 µM | 
28 | Cc1cccc2c1ccc1cc(C(C)CO)c(=O)oc12 (configuration not stated) | 0.86 µM | 
29 | CCOc1ccc(/C=C2\CCc3c([nH]c4c(C)cccc34)C2=O)cc1OCC | 1.5 µM | 
30 | CC(=O)N1N=C(c2ccc[nH]2)CC1c1cc2c([nH]c3ccccc32)c(-c2ccc(C(F)(F)F)cc2)n1 (configuration not stated) | 6.24 µM | 
31 | CCOc1ccc(/C=C2\CCc3c([nH]c4ccc(Cl)cc34)C2=O)cc1OCC | 2.73 µM | 
32 | CC(C)c1ccc2c(c1)CC[C@H]1[C@](C)(C(=O)NC(=S)N[C@@H](Cc3ccccc3)C(=O)Nc3ccc(Br)cc3)CCC[C@]21C | 15.7 µM | 
33 | CC(C)c1ccc2c(c1)CC[C@H]1[C@](C)(C(=O)NC(=S)N[C@@H](Cc3ccccc3)C(=O)Nc3ccccc3Br)CCC[C@]21C | 12.7 µM | 
34 | CC(C)c1ccc2c(c1)CC[C@H]1[C@](C)(C(=O)NC(=S)N[C@@H](Cc3ccccc3)C(=O)Nc3cccc4ccccc34)CCC[C@]21C | 12.8 µM | 
35 | COc1cc(-c2nc(/C=C/C(=O)c3cccs3)cc3c2[nH]c2ccccc23)cc(OC)c1OC | 6.91 µM | 
36 | CCSC1=C(SCC)C(=O)c2c(O)c3c(c(O)c2C1=O)C[C@](C)(O)[C@H](O)[C@H]3O |  | 0.95 µM
37 | CC(C)c1ccc2c(c1)CC[C@H]1[C@](C)(C(=O)NC(=S)N[C@@H](C)C(=O)Nc3ccccn3)CCC[C@]21C | 14.3 µM | 
38 | CC(C)c1ccc2c(c1)CC[C@H]1[C@](C)(C(=O)NC(=S)N[C@@H](C)C(=O)Nc3ccccc3Cl)CCC[C@]21C | 19.7 µM | 

Row | Structure (SMILES) | IC50 [1] | IC50 [2]
39 | COc1c(O)cc2oc3cc(O)c(C/C=C(/C)CO)c(O)c3c(=O)c2c1C/C=C(\C)CCCC(C)(C)O | 16.7 µM | 
40 | Cc1ccccc1NC(=O)[C@H](Cc1ccccc1)NC(=S)NC(=O)[C@]1(C)CCC[C@]2(C)c3ccc(C(C)C)cc3CC[C@@H]12 | 17.7 µM | 
41 | CC(C)c1ccc2c(c1)CC[C@H]1[C@](C)(C(=O)NC(=S)N[C@@H](C)C(=O)Nc3ccc(Br)cc3)CCC[C@]21C | 19 µM | 
42 | C[C@]1(O)Cc2c(O)c3c(c(O)c2[C@H](O)[C@H]1O)C(=O)C=C(Nc1ccccc1)C3=O |  | 4.84 µM
43 | Cc1cccc2c1ccc1cc(C(C)C)c(=O)oc12 | 7.92 µM | 
44 | CC(C)c1ccc2c(c1)CC[C@H]1[C@](C)(C(=O)NC(=S)N[C@@H](Cc3ccccc3)C(=O)Nc3ccc(Cl)cc3)CCC[C@]21C | 17.2 µM | 
45 | CCCCCCSC1=C(SCCCCCC)C(=O)c2c(O)c3c(c(O)c2C1=O)C[C@](C)(O)[C@H](O)[C@H]3O |  | 0.74 µM
46 | CNC1=CC(=O)c2c(O)c3c(c(O)c2C1=O)C[C@](C)(O)[C@H](O)C3 |  | 16.6 µM
47 | O=C(/C=C/c1cc2c([nH]c3ccccc32)c(-c2ccc(C(F)(F)F)cc2)n1)c1ccc[nH]1 | 7.24 µM | 
48 | C[C@]1(O)Cc2c(O)c3c(c(O)c2[C@H](O)[C@H]1O)C(=O)C=C(NCc1ccc(F)cc1)C3=O |  | 4.92 µM
49 | Cc1ccc(NC(=O)[C@H](Cc2ccccc2)NC(=S)NC(=O)[C@]2(C)CCC[C@]3(C)c4ccc(C(C)C)cc4CC[C@@H]23)cc1 | 19.1 µM | 
50 | CC(C)c1ccc2c(c1)CC[C@H]1[C@](C)(C(=O)NC(=S)N[C@@H](Cc3ccccc3)C(=O)Nc3ccccn3)CCC[C@]21C | 6.58 µM | 
51 | C=CCc1cc2oc3cc(OC)cc(O)c3c(=O)c2c(OC)c1O | 18.7 µM | 
52 | CCCCNC1=CC(=O)c2c(O)c3c(c(O)c2C1=O)C[C@](C)(O)[C@H](O)C3 |  | 3.29 µM
53 | O=C1c2cccc(O)c2C(=O)c2c(O)cc(Cn3cc(F)c(=O)[nH]c3=O)cc21 |  | 2.8 µM
54 | CC(C)c1ccc2c(c1)CC[C@H]1[C@](C)(C(=O)NC(=S)N[C@@H](Cc3ccccc3)C(=O)Nc3ccccc3F)CCC[C@]21C | 18.8 µM | 
55 | COc1c(O)cc2oc3cc(O)c(CC=C(C)C)c(O)c3c(=O)c2c1C/C=C(\C)CCC=C(C)C [COWANIN] | 11.7 µM | 
56 | COc1cc2c(=O)c3c(O)c(C/C=C(\C)CCC=C(C)C)c(O)cc3oc2cc1O [COWAXANTHONE] | 15.8 µM | 
57 | CC(C)c1ccc2c(c1)CC[C@H]1[C@](C)(CO)CCC[C@]21C [POMIFERIN A] | 15.7 µM | 
